Results published in patent US8916702B2 (priority 2012, dated 2014).

Tested on: HCV pseudoparticles (genotype 1a HCV E1 and E2 envelope, H77C isolate)
Assay: microbe, parasite or virus in culture
Assay type: cell-based
Conditions: Hepatitis C virus, Huh-7, 48 h, HCV pseudoparticle infection of Huh7 cells, luciferase 2 days after infection; average of duplicates

Row | SMILES | EC50
1 | COc1ccc(NC(=O)C(=O)NC[C@H](NC(=O)c2ccc(Nc3nc(NC4(c5ccc(Cl)cc5)CC4)nc(OCC(F)(F)F)n3)cc2)C(=O)O)cc1 [Compound 1362] | 0.3 nM
2 | COC(=O)[C@@H](CCNC(=O)C(=O)NCC1(c2ccccc2)CC1)NC(=O)c1ccc(Nc2nc(NC3(c4ccc(Cl)cc4)CC3)nc(OCC(F)(F)F)n2)cc1 [Compound 1378] | 0.23 nM
3 | CCc1nccn1CC1(CNC(=O)C(=O)NCC[C@@H](NC(=O)c2ccc(Nc3nc(NC4(c5ccc(Cl)cc5)CC4)nc(OCC(F)(F)F)n3)cc2)C(=O)OC)CC1 [Compound 1386] | 2.76 nM
4 | COC(=O)[C@H](CCNC(=O)C(=O)N[C@@H](N)C1CC1)NC(=O)c1ccc(Nc2nc(NC3(c4ccc(Cl)cc4)CC3)nc(OCC(F)(F)F)n2)cc1 [Compound 1392] | 0.14 nM
5 | COc1cccc(CCNC(=O)C(=O)NC[C@H](NC(=O)c2ccc(Nc3nc(NC4(c5ccc(Cl)cc5)CC4)nc(OCC(F)(F)F)n3)cc2)C(=O)O)c1 [Compound 1398] | 2.19 nM
6 | O=C(NCCc1ccncc1)C(=O)NC[C@H](NC(=O)c1ccc(Nc2nc(NC3(c4ccc(Cl)cc4)CC3)nc(OCC(F)(F)F)n2)cc1)C(=O)O [Compound 1400] | 3.77 nM

Same assay, conditions: Hepatitis C virus, Huh-7, 48 h, read-out: Activity (EC50 class), HCV pseudoparticle infection of Huh7 cells, luciferase 2 days after infection; EC50 expressed as class A/B

Row | SMILES | EC50
7 | COc1ccc(NC(=O)C(=O)NC[C@H](NC(=O)c2ccc(Nc3nc(NC4(c5ccc(Cl)cc5)CC4)nc(OCC(F)(F)F)n3)cc2)C(=O)O)cc1 [Compound 1362] | 0.01 to 10 nM
8 | O=C(NC[C@H](NC(=O)c1ccc(Nc2nc(NC3(c4ccc(Cl)cc4)CC3)nc(OCC(F)(F)F)n2)cc1)C(=O)O)C(=O)Nc1ccc(C(F)(F)F)cc1 [Compound 1363] | 0.01 to 10 nM
9 | COc1ccccc1NC(=O)C(=O)NC[C@H](NC(=O)c1ccc(Nc2nc(NC3(c4ccc(Cl)cc4)CC3)nc(OCC(F)(F)F)n2)cc1)C(=O)O [Compound 1364] | 0.01 to 10 nM
10 | CN(C(=O)C(=O)NC[C@H](NC(=O)c1ccc(Nc2nc(NC3(c4ccc(Cl)cc4)CC3)nc(OCC(F)(F)F)n2)cc1)C(=O)O)c1ccccc1 [Compound 1365] | 0.01 to 10 nM
11 | O=C(NC[C@H](NC(=O)c1ccc(Nc2nc(NC3(c4ccc(Cl)cc4)CC3)nc(OCC(F)(F)F)n2)cc1)C(=O)O)C(=O)Nc1cccnc1 [Compound 1367] | 0.01 to 10 nM
12 | Cn1nccc1NC(=O)C(=O)NC[C@H](NC(=O)c1ccc(Nc2nc(NC3(c4ccc(Cl)cc4)CC3)nc(OCC(F)(F)F)n2)cc1)C(=O)O [Compound 1368] | 0.01 to 10 nM
13 | CCOC(=O)[C@H](CCNC(=O)C(=O)NCC1CC1)NC(=O)c1ccc(Nc2nc(NC3(c4ccc(Cl)cc4)CC3)nc(OCC(F)(F)F)n2)cc1 [Compound 1369] | 0.01 to 10 nM
14 | COC(=O)[C@H](CCNC(=O)C(=O)NC(COCc1ccccc1)C1CC1)NC(=O)c1ccc(Nc2nc(NC3(c4ccc(Cl)cc4)CC3)nc(OCC(F)(F)F)n2)cc1 (stereo partly shown) [Compound 1370] | 0.01 to 10 nM
15 | COCC(NC(=O)C(=O)NCC[C@H](NC(=O)c1ccc(Nc2nc(NC3(c4ccc(Cl)cc4)CC3)nc(OCC(F)(F)F)n2)cc1)C(=O)OC)C1CC1 (stereo partly shown) [Compound 1371] | 0.01 to 10 nM
16 | COC(=O)[C@H](CCNC(=O)C(=O)NCC1CC1(Cl)Cl)NC(=O)c1ccc(Nc2nc(NC3(c4ccc(Cl)cc4)CC3)nc(OCC(F)(F)F)n2)cc1 (stereo partly shown) [Compound 1372] | 0.01 to 10 nM
17 | COC(=O)[C@H](CCNC(=O)C(=O)NCC1CC1c1cc(F)ccc1F)NC(=O)c1ccc(Nc2nc(NC3(c4ccc(Cl)cc4)CC3)nc(OCC(F)(F)F)n2)cc1 (stereo partly shown) [Compound 1373] | 0.01 to 10 nM
18 | COCC1(CNC(=O)C(=O)NCC[C@H](NC(=O)c2ccc(Nc3nc(NC4(c5ccc(Cl)cc5)CC4)nc(OCC(F)(F)F)n3)cc2)C(=O)OC)CC1 [Compound 1374] | 0.01 to 10 nM
19 | COC(=O)[C@H](CCNC(=O)C(=O)NCC1(C(=O)OC)CC1)NC(=O)c1ccc(Nc2nc(NC3(c4ccc(Cl)cc4)CC3)nc(OCC(F)(F)F)n2)cc1 [Compound 1375] | 0.01 to 10 nM
20 | COC(=O)[C@@H](CCNC(=O)C(O)NCC1CC1c1cccc(F)c1)NC(=O)c1ccc(Nc2nc(NC3(c4ccc(Cl)cc4)CC3)nc(OCC(F)(F)F)n2)cc1 (stereo partly shown) [Compound 1376] | 0.01 to 10 nM
21 | COC(=O)[C@H](CCNC(=O)C(=O)N[C@H](C)C1CC1)NC(=O)c1ccc(Nc2nc(NC3(c4ccc(Cl)cc4)CC3)nc(OCC(F)(F)F)n2)cc1 [Compound 1377] | 0.01 to 10 nM
22 | COC(=O)[C@@H](CCNC(=O)C(=O)NCC1(c2ccccc2)CC1)NC(=O)c1ccc(Nc2nc(NC3(c4ccc(Cl)cc4)CC3)nc(OCC(F)(F)F)n2)cc1 [Compound 1378] | 0.01 to 10 nM
23 | CCOCC1(CNC(=O)C(=O)NCC[C@@H](NC(=O)c2ccc(Nc3nc(NC4(c5ccc(Cl)cc5)CC4)nc(OCC(F)(F)F)n3)cc2)C(=O)OC)CC1 [Compound 1379] | 0.01 to 10 nM
24 | COC(=O)[C@@H](CCNC(=O)C(=O)NCC1(CO)CC1)NC(=O)c1ccc(Nc2nc(NC3(c4ccc(Cl)cc4)CC3)nc(OCC(F)(F)F)n2)cc1 [Compound 1380] | 0.01 to 10 nM
25 | COC(=O)[C@@H](CCNC(=O)C(=O)NCC1(NC(=O)OC(C)(C)C)CC1)NC(=O)c1ccc(Nc2nc(NC3(c4ccc(Cl)cc4)CC3)nc(OCC(F)(F)F)n2)cc1 [Compound 1381] | 0.01 to 10 nM
26 | COC(=O)[C@@H](CCNC(=O)C(=O)NCC1(CN2CCOCC2)CC1)NC(=O)c1ccc(Nc2nc(NC3(c4ccc(Cl)cc4)CC3)nc(OCC(F)(F)F)n2)cc1 [Compound 1382] | 0.01 to 10 nM
27 | COC(=O)[C@@H](CCNC(=O)C(=O)NCC1(Cn2nc(C)cc2C)CC1)NC(=O)c1ccc(Nc2nc(NC3(c4ccc(Cl)cc4)CC3)nc(OCC(F)(F)F)n2)cc1 [Compound 1383] | 0.01 to 10 nM
28 | COC(=O)[C@@H](CCNC(=O)C(=O)NCC1(CN2CCCC2)CC1)NC(=O)c1ccc(Nc2nc(NC3(c4ccc(Cl)cc4)CC3)nc(OCC(F)(F)F)n2)cc1 [Compound 1384] | 0.01 to 10 nM
29 | COC(=O)[C@@H](CCNC(=O)C(=O)NCC1(Cn2ccnc2)CC1)NC(=O)c1ccc(Nc2nc(NC3(c4ccc(Cl)cc4)CC3)nc(OCC(F)(F)F)n2)cc1 [Compound 1385] | 0.01 to 10 nM
30 | CCc1nccn1CC1(CNC(=O)C(=O)NCC[C@@H](NC(=O)c2ccc(Nc3nc(NC4(c5ccc(Cl)cc5)CC4)nc(OCC(F)(F)F)n3)cc2)C(=O)OC)CC1 [Compound 1386] | 0.01 to 10 nM
31 | COC(=O)[C@@H](CCNC(=O)C(=O)NCC1(COc2ccccc2)CC1)NC(=O)c1ccc(Nc2nc(NC3(c4ccc(Cl)cc4)CC3)nc(OCC(F)(F)F)n2)cc1 [Compound 1387] | 0.01 to 10 nM

Row | SMILES | EC50
32 | COC(=O)[C@@H](CCNC(=O)C(=O)NCC1(CN2CCN(C)CC2)CC1)NC(=O)c1ccc(Nc2nc(NC3(c4ccc(Cl)cc4)CC3)nc(OCC(F)(F)F)n2)cc1 [Compound 1388] | 0.01 to 10 nM
33 | COC(=O)[C@@H](CCNC(=O)C(=O)NCC1CC1c1ccc(F)cc1)NC(=O)c1ccc(Nc2nc(NC3(c4ccc(Cl)cc4)CC3)nc(OCC(F)(F)F)n2)cc1 (stereo partly shown) [Compound 1389] | 0.01 to 10 nM
34 | COC(=O)[C@@H](CCNC(=O)C(=O)NC(CCO)C1CC1)NC(=O)c1ccc(Nc2nc(NC3(c4ccc(Cl)cc4)CC3)nc(OCC(F)(F)F)n2)cc1 (stereo partly shown) [Compound 1390] | 0.01 to 10 nM
35 | COC(=O)[C@H](CCNC(=O)C(=O)NC(CCO)C1CC1)NC(=O)c1ccc(Nc2nc(NC3(c4ccc(Cl)cc4)CC3)nc(OCC(F)(F)F)n2)cc1 (stereo partly shown) [Compound 1391] | 0.01 to 10 nM
36 | COC(=O)[C@H](CCNC(=O)C(=O)N[C@@H](N)C1CC1)NC(=O)c1ccc(Nc2nc(NC3(c4ccc(Cl)cc4)CC3)nc(OCC(F)(F)F)n2)cc1 [Compound 1392] | 0.01 to 10 nM
37 | COC(=O)[C@H](CCNC(=O)C(=O)NC[C@H]1C[C@H]1c1ccc(C)cc1)NC(=O)c1ccc(Nc2nc(NC3(c4ccc(Cl)cc4)CC3)nc(OCC(F)(F)F)n2)cc1 [Compound 1393] | 0.01 to 10 nM
38 | O=C(NCCc1ccccn1)C(=O)NC[C@H](NC(=O)c1ccc(Nc2nc(NC3(c4ccc(Cl)cc4)CC3)nc(OCC(F)(F)F)n2)cc1)C(=O)O [Compound 1394] | 0.01 to 10 nM
39 | CC(CNC(=O)C(=O)NC[C@H](NC(=O)c1ccc(Nc2nc(NC3(c4ccc(Cl)cc4)CC3)nc(OCC(F)(F)F)n2)cc1)C(=O)O)c1ccccc1 (stereo partly shown) [Compound 1395] | 0.01 to 10 nM
40 | O=C(NCCc1ccccc1)C(=O)NC[C@H](NC(=O)c1ccc(Nc2nc(NC3(c4ccc(Cl)cc4)CC3)nc(OCC(F)(F)F)n2)cc1)C(=O)O [Compound 1396] | 0.01 to 10 nM
41 | COc1ccccc1CCNC(=O)C(=O)NC[C@H](NC(=O)c1ccc(Nc2nc(NC3(c4ccc(Cl)cc4)CC3)nc(OCC(F)(F)F)n2)cc1)C(=O)O [Compound 1397] | 0.01 to 10 nM
42 | COc1cccc(CCNC(=O)C(=O)NC[C@H](NC(=O)c2ccc(Nc3nc(NC4(c5ccc(Cl)cc5)CC4)nc(OCC(F)(F)F)n3)cc2)C(=O)O)c1 [Compound 1398] | 0.01 to 10 nM
43 | COc1ccc(CCNC(=O)C(=O)NC[C@H](NC(=O)c2ccc(Nc3nc(NC4(c5ccc(Cl)cc5)CC4)nc(OCC(F)(F)F)n3)cc2)C(=O)O)cc1 [Compound 1399] | 0.01 to 10 nM
44 | O=C(NCCc1ccncc1)C(=O)NC[C@H](NC(=O)c1ccc(Nc2nc(NC3(c4ccc(Cl)cc4)CC3)nc(OCC(F)(F)F)n2)cc1)C(=O)O [Compound 1400] | 0.01 to 10 nM
45 | O=C(NCCc1cccc(F)c1)C(=O)NC[C@H](NC(=O)c1ccc(Nc2nc(NC3(c4ccc(Cl)cc4)CC3)nc(OCC(F)(F)F)n2)cc1)C(=O)O [Compound 1401] | 0.01 to 10 nM
46 | O=C(NCCc1ccccc1F)C(=O)NC[C@H](NC(=O)c1ccc(Nc2nc(NC3(c4ccc(Cl)cc4)CC3)nc(OCC(F)(F)F)n2)cc1)C(=O)O [Compound 1402] | 0.01 to 10 nM
47 | O=C(NC[C@H](NC(=O)c1ccc(Nc2nc(NC3(c4ccc(Cl)cc4)CC3)nc(OCC(F)(F)F)n2)cc1)C(=O)O)C(=O)NC1Cc2ccccc2C1 [Compound 1403] | 0.01 to 10 nM
48 | Cc1ccc(CCNC(=O)C(=O)NC[C@H](NC(=O)c2ccc(Nc3nc(NC4(c5ccc(Cl)cc5)CC4)nc(OCC(F)(F)F)n3)cc2)C(=O)O)cc1 [Compound 1404] | 0.01 to 10 nM
49 | O=C(NCCc1cccnc1)C(=O)NC[C@H](NC(=O)c1ccc(Nc2nc(NC3(c4ccc(Cl)cc4)CC3)nc(OCC(F)(F)F)n2)cc1)C(=O)O [Compound 1405] | 0.01 to 10 nM
50 | O=C(NC[C@H](NC(=O)c1ccc(Nc2nc(NC3(c4ccc(Cl)cc4)CC3)nc(OCC(F)(F)F)n2)cc1)C(=O)O)C(=O)N[C@@H]1C[C@H]1c1ccccc1 [Compound 1406] | 0.01 to 10 nM
51 | O=C(NCCc1c[nH]cn1)C(=O)NC[C@H](NC(=O)c1ccc(Nc2nc(NC3(c4ccc(Cl)cc4)CC3)nc(OCC(F)(F)F)n2)cc1)C(=O)O [Compound 1407] | 0.01 to 10 nM
52 | CC(C)(Cc1ccc(F)cc1)NC(=O)C(=O)NCC(NC(=O)c1ccc(Nc2nc(NC3(c4ccc(Cl)cc4)CC3)nc(OCC(F)(F)F)n2)cc1)C(=O)O (stereo not shown) [Compound 1408] | 0.01 to 10 nM
53 | O=C(NCC1CCCc2ccccc21)C(=O)NC[C@@H](NC(=O)c1ccc(Nc2nc(NC3(c4ccc(Cl)cc4)CC3)nc(OCC(F)(F)F)n2)cc1)C(=O)O (stereo partly shown) [Compound 1410] | 0.01 to 10 nM
54 | O=C(NCCn1cccn1)C(=O)NC[C@H](NC(=O)c1ccc(Nc2nc(NC3(c4ccc(Cl)cc4)CC3)nc(OCC(F)(F)F)n2)cc1)C(=O)O [Compound 1411] | 0.01 to 10 nM
55 | Cc1nccn1CCNC(=O)C(=O)NC[C@H](NC(=O)c1ccc(Nc2nc(NC3(c4ccc(Cl)cc4)CC3)nc(OCC(F)(F)F)n2)cc1)C(=O)O [Compound 1412] | 10 to 1000 nM
